These results are taken from ChEMBL document CHEMBL1177783, “Discovery of aminopyridines substituted with benzoxazole as orally active c-Met kinase inhibitors” (Bioorg Med Chem Lett, 2010).

For data set [1], the target named is Hepatocyte growth factor receptor (Homo sapiens, UniProt P08581). As to the kind of experiment: Inhibition of recombinant c-MET by HTRF assay. In general terms: Time-resolved FRET reads energy transfer from a long-lived donor to a nearby acceptor.
Data set [2] can be described thus: Volume of distribution at steady state in rat at 10 mg/kg, iv. It counts as ADME, organism-based. Also noted: dose 10 mg/kg, route intravenous. As to conditions: in vivo, read-out: Vdss.
The nature of data set [3]: Oral bioavailability in rat at 10 mg/kg. As to conditions: in vivo. In kind it is ADME, organism-based.
A short description of data set [4]: AUC in rat at 10 mg/kg, po. It counts as ADME, organism-based. As to conditions: plasma. Also noted: dose 10 mg/kg, route oral.
Data set [5] is described as follows: Cmax in rat at 10 mg/kg, po. In kind it is ADME, organism-based. Also on record: dose 10 mg/kg, route oral. As to conditions: in vivo.
Data set [6] is described as follows: Clearance in rat at 10 mg/kg, iv. In kind it is ADME, organism-based. Also noted: dose 10 mg/kg, route intravenous. As to conditions: in vivo.
The nature of data set [7]: AUC in rat at 10 mg/kg, iv. It counts as ADME, organism-based. Also on record: dose 10 mg/kg, route intravenous. As to conditions: plasma.
A further data set concerns the target hERG (KCNH2) (Homo sapiens, UniProt Q12809). As to the kind of experiment: Displacement of [3H]astemizole from human ERG expressed in HEK293 cells at 10 uM. As to conditions: HEK293 cells expressing human ERG, probe [3H]astemizole. (In general: Displacement assays read how much labelled ligand stays bound in the presence of the test substance.)

pIC50: −log10 of the molar value.

Sequence of Hepatocyte growth factor receptor (P08581 whole entry): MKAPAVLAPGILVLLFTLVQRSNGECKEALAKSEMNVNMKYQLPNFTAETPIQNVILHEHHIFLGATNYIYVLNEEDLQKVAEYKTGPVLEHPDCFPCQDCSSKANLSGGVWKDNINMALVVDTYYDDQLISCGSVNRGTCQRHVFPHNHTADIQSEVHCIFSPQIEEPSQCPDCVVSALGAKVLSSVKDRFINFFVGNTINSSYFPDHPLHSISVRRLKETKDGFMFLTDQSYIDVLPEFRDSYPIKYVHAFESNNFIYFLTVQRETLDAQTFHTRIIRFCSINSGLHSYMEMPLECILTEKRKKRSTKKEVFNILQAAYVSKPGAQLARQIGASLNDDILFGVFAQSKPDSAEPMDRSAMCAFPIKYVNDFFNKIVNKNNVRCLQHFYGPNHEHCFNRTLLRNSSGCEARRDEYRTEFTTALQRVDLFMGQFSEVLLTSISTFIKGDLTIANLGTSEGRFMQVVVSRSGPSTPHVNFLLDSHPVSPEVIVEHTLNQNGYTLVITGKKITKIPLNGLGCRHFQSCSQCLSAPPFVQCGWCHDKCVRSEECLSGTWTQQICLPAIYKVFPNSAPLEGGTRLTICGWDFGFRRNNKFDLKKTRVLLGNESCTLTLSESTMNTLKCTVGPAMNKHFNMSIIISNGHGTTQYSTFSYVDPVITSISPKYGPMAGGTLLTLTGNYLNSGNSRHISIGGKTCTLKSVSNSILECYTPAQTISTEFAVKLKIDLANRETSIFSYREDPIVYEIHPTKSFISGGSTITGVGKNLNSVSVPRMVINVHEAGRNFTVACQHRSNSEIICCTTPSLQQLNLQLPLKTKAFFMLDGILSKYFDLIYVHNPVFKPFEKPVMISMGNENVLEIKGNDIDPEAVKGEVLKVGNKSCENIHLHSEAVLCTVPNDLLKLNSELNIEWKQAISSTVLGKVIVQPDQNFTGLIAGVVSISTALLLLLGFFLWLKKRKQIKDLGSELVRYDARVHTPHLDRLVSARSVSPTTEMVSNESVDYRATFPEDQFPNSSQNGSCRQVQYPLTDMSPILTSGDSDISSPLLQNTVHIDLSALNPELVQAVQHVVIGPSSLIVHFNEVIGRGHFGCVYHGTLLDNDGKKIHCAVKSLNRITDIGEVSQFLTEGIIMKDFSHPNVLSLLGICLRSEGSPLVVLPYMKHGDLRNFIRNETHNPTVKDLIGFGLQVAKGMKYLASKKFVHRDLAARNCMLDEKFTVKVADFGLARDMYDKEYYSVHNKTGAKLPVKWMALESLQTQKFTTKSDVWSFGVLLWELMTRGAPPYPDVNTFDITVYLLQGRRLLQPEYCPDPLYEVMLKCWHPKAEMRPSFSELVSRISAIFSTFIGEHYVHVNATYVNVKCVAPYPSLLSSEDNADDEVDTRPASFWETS
Sequence of hERG (KCNH2) (Q12809 whole entry): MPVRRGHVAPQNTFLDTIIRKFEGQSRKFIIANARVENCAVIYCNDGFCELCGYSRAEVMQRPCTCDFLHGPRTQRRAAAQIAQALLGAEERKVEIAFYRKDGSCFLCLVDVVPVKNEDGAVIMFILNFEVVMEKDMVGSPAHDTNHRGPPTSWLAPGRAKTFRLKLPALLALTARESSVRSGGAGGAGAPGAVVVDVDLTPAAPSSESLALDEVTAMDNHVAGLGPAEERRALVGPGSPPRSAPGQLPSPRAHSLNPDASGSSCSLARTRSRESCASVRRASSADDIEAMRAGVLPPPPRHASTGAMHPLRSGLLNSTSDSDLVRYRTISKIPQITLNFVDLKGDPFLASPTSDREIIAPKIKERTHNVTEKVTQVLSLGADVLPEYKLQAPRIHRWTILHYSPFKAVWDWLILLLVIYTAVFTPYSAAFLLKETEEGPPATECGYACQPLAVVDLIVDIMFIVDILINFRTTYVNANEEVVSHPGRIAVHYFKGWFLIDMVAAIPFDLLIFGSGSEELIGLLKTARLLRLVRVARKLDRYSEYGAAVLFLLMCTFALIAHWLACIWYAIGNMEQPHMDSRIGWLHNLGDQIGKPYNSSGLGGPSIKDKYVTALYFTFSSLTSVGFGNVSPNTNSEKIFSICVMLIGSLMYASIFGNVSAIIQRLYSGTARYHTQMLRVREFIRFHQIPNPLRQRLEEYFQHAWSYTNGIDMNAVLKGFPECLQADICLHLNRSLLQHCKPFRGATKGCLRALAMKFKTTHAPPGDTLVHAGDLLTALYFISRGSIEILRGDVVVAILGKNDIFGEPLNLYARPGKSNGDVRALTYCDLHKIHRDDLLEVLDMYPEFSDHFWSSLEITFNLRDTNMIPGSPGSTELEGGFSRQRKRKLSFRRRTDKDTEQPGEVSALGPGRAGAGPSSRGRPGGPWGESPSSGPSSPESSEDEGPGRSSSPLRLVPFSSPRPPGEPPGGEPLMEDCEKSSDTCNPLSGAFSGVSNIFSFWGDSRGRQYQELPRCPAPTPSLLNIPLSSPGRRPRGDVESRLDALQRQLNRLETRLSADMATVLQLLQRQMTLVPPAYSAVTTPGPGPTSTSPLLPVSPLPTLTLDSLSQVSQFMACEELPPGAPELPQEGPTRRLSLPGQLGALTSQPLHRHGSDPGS

Regarding `COCC(=O)N1CCC(n2cc(-c3cnc(N)c(-c4nc5ccccc5o4)c3)cn2)CC1`, the pIC50 in data set [1] was 7.77.
As for `Nc1ncc(-c2cccnc2)cc1-c1nc2ccccc2o1`, in data set [1], the pIC50 is under 5.00.
`c1ccc2oc(-c3cncc(-c4cnn(C5CCNCC5)c4)c3)nc2c1`: the negative logarithm of the IC50 (pIC50) in data set [1] is under 5.00.
On the same count and under the same terms, for `Cn1cc(-c2cnc(NCc3ccccc3)c(-c3nc4ccccc4o3)c2)cn1` the value was under 5.00.
As to `CC(=O)N1CCC(n2cc(-c3cnc(N)c(-c4nc5ccccc5o4)c3)cn2)CC1.Cl`, the Vd in data set [2] was determined as 2.4 L/kg. The bioavailability in data set [3] stood at 47%. Further, the AUC in data set [4] came to 2700 ng·h/mL; in data set [7], 5600 ng·h/mL. In data set [5], this compound yielded a maximum concentration (Cmax) of 600 ng/mL. The same compound gave a clearance in data set [6] of 30 mL/min/kg. In addition, in data set [1], the pIC50 was 8.52.
Turning to `Nc1ncc(-c2cnn(CCO)c2)cc1-c1nc2ccccc2o1`, the pIC50 in data set [1] is 5.89.
On to `Nc1ncc(-c2ccncc2)cc1-c1nc2ccccc2o1`, for which the negative logarithm of the IC50 (pIC50) in data set [1] is 5.28.
Still for that read-out and setting: for `Nc1ncc(-c2ccccc2)cc1-c1nc2ccccc2o1` the value was under 5.00.
As for `CCN(CC)C(=O)N1CCC(n2cc(-c3cnc(N)c(-c4nc5ccccc5o4)c3)cn2)CC1`, the pIC50 in data set [1] was 6.45.
Regarding `COC(=O)N1CCC(n2cc(-c3cnc(N)c(-c4nc5ccccc5o4)c3)cn2)CC1`, the negative logarithm of the IC50 (pIC50) in data set [1] was 7.24.
As for `CNc1ncc(-c2cnn(C)c2)cc1-c1nc2ccccc2o1`, the pIC50 in data set [1] is under 5.00.
Take `CNc1ncc(-c2cnn(C3CCNCC3)c2)cc1-c1nc2ccccc2o1`: in data set [1], the negative-log IC50 (pIC50) is under 5.00.
`CS(=O)(=O)N1CCC(n2cc(-c3cnc(N)c(-c4nc5ccccc5o4)c3)cn2)CC1`: in data set [1], the pIC50 was 6.43.
With `Nc1ncc(-c2cnn(C3CCN(C(=O)CO)CC3)c2)cc1-c1nc2ccccc2o1`, the negative-log IC50 (pIC50) in data set [1] is 7.59.
Same read-out and setting: then `Cn1cc(-c2cncc(-c3nc4ccccc4o3)c2)cn1`, with under 5.00; and `CCC(=O)N1CCC(n2cc(-c3cnc(N)c(-c4nc5ccccc5o4)c3)cn2)CC1`, with 8.15; and `CN(C)CC(=O)N1CCC(n2cc(-c3cnc(N)c(-c4nc5ccccc5o4)c3)cn2)CC1`, with 7.22.
For the compound `Nc1ncc(-c2cnn(C3CCN(C(=O)c4ccccc4)CC3)c2)cc1-c1nc2ccccc2o1`, in data set [1], the pIC50 is 6.85.
The compound `Cn1cc(-c2cnc(N)c(-c3nc4ccccc4o3)c2)cn1` gave an inhibition at 10 µM at hERG (KCNH2) of 15%. Moreover, in data set [1], the pIC50 is 5.68.
With `Nc1ncc(-c2cnn(C3CCNCC3)c2)cc1-c1nc2ccccc2o1`, the negative-log IC50 (pIC50) in data set [1] was 7.10.
Consider `Nc1ncc(-c2cnn(C3CCOCC3)c2)cc1-c1nc2ccccc2o1`, for which the negative-log IC50 (pIC50) in data set [1] is 6.37.

The pIC50 is −log10 of the IC50, conventionally taken in molar units. As usually defined, the bioavailability is the share of a dose that reaches the circulation, judged against a reference dose that is usually intravenous. The low end stands for little systemic uptake, the high end for much systemic uptake. As usually defined, the AUC is concentration integrated over time. The low end stands for low exposure, the high end for high exposure. In general, Cmax refers to the highest concentration seen after dosing. As a reminder, the clearance is the rate of elimination divided by the concentration. The inhibition is how much of the control response was suppressed.
